System: HCV replicon, genotype-1a variant with glutamine 30 changed to glutamate in the NS5A protein
Experiment: microbe, parasite or virus in culture
Format: cell-based, HCV genotype 1a
Conditions: HCV replicon genotype 1a Q30E (Q→E) variant; test compound titrated with an NS5A-targeting compound (BMS-790052 fixed at 200 nM); ranking of synergist activity
Procedure, shortened: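 Synergy was assessed by combining several fixed amounts of an NS5A-targeting compound with a titration of the second compound of interest.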

| Compound | Fold-Synergistic 1a (Q30E) [fold] |
| --- | --- |
| CC(C)(C)[C@H](NC(=O)C1CCC(=O)CC1)c1nc(-c2ccc(-c3ccc(-c4c[nH]c([C@@H](NC(=O)C5CCC(=O)CC5)C(C)(C)C)n4)cc3)cc2)c[nH]1 [Compound W-173] | >100 |
| CC(C)[C@H](NC(=O)[C@@H]1C[C@@H](O)CN1C(=O)OC(C)(C)C)c1nc(-c2ccc(-c3ccc(-c4c[nH]c([C@@H](NC(=O)[C@@H]5C[C@@H](O)CN5C(=O)OC(C)(C)C)C(C)C)n4)cc3)cc2)c[nH]1 [Compound W-97] | >100 |
| CC(C)(C)[C@H](O)C(=O)N[C@H](c1nc(-c2ccc(-c3ccc(-c4c[nH]c([C@@H](NC(=O)[C@@H](O)C(C)(C)C)C(C)(C)C)n4)cc3)cc2)c[nH]1)C(C)(C)C [Compound L-76] | >100 |
| CC(C)C(c1ncc(-c2ccc(-c3ccc(-c4cnc(C(C(C)C)N5CCCCC5=O)[nH]4)cc3)cc2)[nH]1)N1CCCCC1=O (stereo not drawn) [Compound P-52] | >10 |
| CC(C)[C@H](NC(=O)C(=O)N1CCCCCC1)c1nc(-c2ccc(-c3ccc(-c4c[nH]c([C@@H](NC(=O)C(=O)N5CCCCCC5)C(C)C)n4)cc3)cc2)c[nH]1 [Compound W-52] | >100 |
| CC(C)(C)[C@H](NC(=O)C1CCC(F)(F)CC1)c1nc(-c2ccc(-c3cnc(-c4c[nH]c([C@@H](NC(=O)C5CCC(F)(F)CC5)C(C)(C)C)n4)cn3)cc2)c[nH]1 [Compound N-104] | >100 |
| O=C(N1CCC[C@H]1c1ncc(-c2ccc(-c3ccc(-c4cnc([C@@H]5CCCN5C(=O)C5(O)CCC(F)(F)CC5)[nH]4)cc3)cc2)[nH]1)C1(O)CCC(F)(F)CC1 [Compound P-185] | >100 |
| CC(C)(C)[C@H](NC(=O)c1ccccc1O)c1nc(-c2ccc(-c3ccc(-c4c[nH]c([C@@H](NC(=O)c5ccccc5O)C(C)(C)C)n4)cc3)cc2)c[nH]1 [Compound Y-72] | >100 |
| CC1([C@H](NC(=O)C2(N3CCC(F)(F)CC3)COC2)c2nc(-c3ccc(-c4ccc(-c5c[nH]c([C@@H](NC(=O)C6(N7CCC(F)(F)CC7)COC6)C6(C)CC6)n5)cc4)cc3)c[nH]2)CC1 [Compound W-62] | >100 |
| Cc1ccc(S(=O)(=O)N[C@H](c2ncc(-c3ccc(-c4ccc(-c5cnc([C@@H](NS(=O)(=O)c6ccc(C)cc6)C(C)C)[nH]5)cc4)cc3)[nH]2)C(C)C)cc1 [Compound Y-58] | >100 |
| Cc1cc(C(=O)N2CCC[C@H]2c2ncc(-c3ccc(-c4ccc(-c5cnc([C@@H]6CCCN6C(=O)c6cc(C)nc(Cl)c6)[nH]5)cc4)cc3)[nH]2)cc(Cl)n1 [Compound S-131] | >10 |
| CC(C)(C)[C@H](NC(=O)C1CC2(C1)OCCO2)c1nc(-c2ccc(-c3ccc(-c4c[nH]c([C@@H](NC(=O)C5CC6(C5)OCCO6)C(C)(C)C)n4)cc3)cc2)c[nH]1 (stereo partly drawn) [Compound W-178] | >100 |
| C#CCCC(=O)N1CCC[C@H]1c1ncc(-c2ccc(-c3ccc(-c4cnc([C@@H]5CCCN5C(=O)CCC#C)[nH]4)cc3)cc2)[nH]1 [Compound S-179] | <10 |
| CCN(CC)C(=O)C(=O)N[C@H](c1nc(-c2ccc(-c3ccc(-c4c[nH]c([C@@H](NC(=O)C(=O)N(CC)CC)C(C)(C)C)n4)cc3)cc2)c[nH]1)C(C)(C)C [Compound W-33] | >100 |
| COc1cnc(C(=O)N2CCC[C@H]2c2ncc(-c3ccc(-c4ccc(-c5cnc([C@@H]6CCCN6C(=O)c6ncc(OC)c7ccccc67)[nH]5)cc4)cc3)[nH]2)c2ccccc12 [Compound S-199] | >100 |
| Cc1ccc(C2(C(=O)N3CCC[C@H]3c3ncc(-c4ccc(-c5ccc(-c6cnc([C@@H]7CCCN7C(=O)C7(c8ccc(C)cc8)CCCC7)[nH]6)cc5)cc4)[nH]3)CCCC2)cc1 [Compound S-152] | <10 |
| CC(C)[C@H](NC(=O)C1(C)CCCCC1)c1nc(-c2ccc3c(c2)Cc2cc(-c4c[nH]c([C@@H](NC(=O)C5(C)CCCCC5)C(C)C)n4)ccc2-3)c[nH]1 [Compound N-69] | >100 |
| COC(=O)C1([C@H](CC(C)C)C(=O)N[C@H](c2nc(-c3ccc(-c4ccc(-c5c[nH]c([C@@H](NC(=O)[C@@H](CC(C)C)C6(C(=O)OC)CC=CC6)C(C)(C)C)n5)cc4)cc3)c[nH]2)C(C)(C)C)CC=CC1 [Compound S-294] | >100 |
| CC(C)CC(=O)N[C@@H](C)c1nc(-c2ccc(-c3ccc(-c4c[nH]c([C@H](C)NC(=O)CC(C)C)n4)cc3)cc2)c[nH]1 [Compound N-39] | >10 |
| O=C(c1ccnnc1)N1CCC[C@H]1c1ncc(-c2ccc(-c3ccc(-c4cnc([C@@H]5CCCN5C(=O)c5ccnnc5)[nH]4)cc3)cc2)[nH]1 [Compound S-187] | <10 |
| CN1CCN(C(=O)C(=O)N[C@H](c2nc(-c3ccc(-c4ccc(-c5c[nH]c([C@@H](NC(=O)C(=O)N6CCN(C)CC6)C(C)(C)C)n5)cc4)cc3)c[nH]2)C(C)(C)C)CC1 [Compound W-35] | >100 |
| CC(C)N(C(=O)OC1(C(=O)N[C@H](c2nc(-c3ccc(-c4ccc(-c5c[nH]c([C@@H](NC(=O)C6(OC(=O)N(C(C)C)C(C)C)CC6)C(C)(C)C)n5)cc4)cc3)c[nH]2)C(C)(C)C)CC1)C(C)C [Compound L-38] | >100 |
| COC(=O)N[C@@H](C(=O)NC1(c2nc(-c3ccc(-c4ccc(-c5c[nH]c(C6(NC(=O)[C@H](NC(=O)OC)C(C)C)CCCC6)n5)cc4)cc3)c[nH]2)CCCC1)C(C)C [Compound N-13] | <10 |
| CC1([C@H](NC(=O)[C@@]2(C)CC(F)(F)CCO2)c2nc(-c3ccc(-c4ccc(-c5c[nH]c([C@@H](NC(=O)[C@@]6(C)CC(F)(F)CCO6)C6(C)CC6)n5)cc4)cc3)c[nH]2)CC1 [Compound Y-82] | >100 |
| CC(C)(C)[C@H](NC(=O)C(C)(C)[C@]1(O)C[C@H]2CC(F)(F)C[C@H]2C1)c1nc(-c2ccc(-c3ccc(-c4c[nH]c([C@@H](NC(=O)C(C)(C)[C@]5(O)C[C@H]6CC(F)(F)C[C@H]6C5)C(C)(C)C)n4)cc3)cc2)c[nH]1 [Compound P-157] | >100 |
| CC(C)(C)OC(=O)N1CC2(CC(C(=O)N[C@H](c3nc(-c4ccc(-c5ccc(-c6c[nH]c([C@@H](NC(=O)C7CC8(C7)CN(C(=O)OC(C)(C)C)C8)C(C)(C)C)n6)cc5)cc4)c[nH]3)C(C)(C)C)C2)C1 (stereo partly drawn) [Compound L-57] | >100 |
| O=C(c1nc2ccccc2s1)N1CCC[C@H]1c1ncc(-c2ccc(-c3ccc(-c4cnc([C@@H]5CCCN5C(=O)c5nc6ccccc6s5)[nH]4)cc3)cc2)[nH]1 [Compound S-141] | >10 |
| CC(C)(C)[C@H](NC(=O)C(=O)N1CCOCC1)c1nc(-c2ccc(-c3ccc(-c4c[nH]c([C@@H](NC(=O)C(=O)N5CCOCC5)C(C)(C)C)n4)cc3)cc2)c[nH]1 [Compound W-25] | >100 |
| Cc1onc(-c2ccccc2)c1C(=O)N1CCC[C@H]1c1ncc(-c2ccc(-c3ccc(-c4cnc([C@@H]5CCCN5C(=O)c5c(-c6ccccc6)noc5C)[nH]4)cc3)cc2)[nH]1 [Compound S-118] | <10 |
| COC(=O)N1CCC[C@@]1(C)C(=O)N[C@H](c1nc(-c2ccc(-c3ccc(-c4c[nH]c([C@@H](NC(=O)[C@]5(C)CCCN5C(=O)OC)C(C)(C)C)n4)cc3)cc2)c[nH]1)C(C)(C)C [Compound L-23] | >100 |

— patent US9326973B2, “Hepatitis C virus inhibitors” (priority 2012, dated 2016)
